Laboratory results reported in US11492375B2, “Cyclic peptide immunomodulators” (Bristol-Myers Squibb Company, priority 2017, dated 2022).
Like-named read-outs stand apart in the source and are kept apart here.

Biological target: PD-1-Ig binding to PD-L1-TVMV-His (PD-L1-His) (Homo sapiens (Human), UniProt Q9NZQ7)
Experiment: PD-1/PD-L1 Homogenous Time-Resolved Fluorescence (HTRF) binding assay
Settings: PD-1-Ig/PD-L1-His binding, read-out: HTRF IC50 (μM) or Range
Text: The ability of the macrocyclic peptides of the present disclosure to bind to PD-L1 was investigated using a PD-1/PD-L1 Homogenous Time-Resolved Fluorescence (HTRF) binding assay.
Homogenous Time-Resolved Fluorescence (HTRF) Assays of Binding of Soluble PD-1 to Soluble PD-L1. Soluble PD-1 and soluble PD-L1 refers to proteins with carboxyl-end truncations that remove the transmembrane-spanning regions and are fused to heterologous sequences, specifically the Fc portion of the human immunoglobuling G sequence (Ig) or the hexahistidine epitope tag (His). All binding studies were performed in an HTRF assay buffer consisting of dPBS supplemented with 0.1% (w/v) bovine serum albumin and 0.05% (v/v) Tween-20. For the PD-1-Ig/PD-L1-His binding assay, inhibitors were pre-incubated with PD-L1-His (10 nM final) for 15m in 4 μl of assay buffer, followed by addition of PD-1-Ig (20 nM final) in 1 μl of assay buffer and further incubation for 15 m. PD-L1 fusion proteins from either human, cynomologous macaques, mouse, or other species were used. HTRF detection was achieved using europium crypate-labeled anti-Ig monoclonal antibody (1 nM final) and allophycocyanin (APC) labeled anti-His monoclonal antibody (20 nM final). Antibodies were diluted in HTRF detection buffer and 5 μl was dispensed on top of binding reaction. The reaction was allowed to equilibrate for 30 minutes and signal (665 nm/620 nm ratio) was obtained using an EnVision fluorometer. Additional binding assays were established between PD-1-Ig/PD-L2-His (20 and 5 nM, respectively), CD8O-His/PD-L1-Ig (100 and 10 nM, respectively) and CD80-His/CTLA4-Ig (10 and 5 nM, respectively). Binding/competition studies between biotinylated Compound No. 71 and human PD-L1-His were performed as follows. Macrocyclic peptide inhibitors were pre-incubated with PD-L1-His (10 nM final) for 60 minutes in 4 μl of assay buffer followed by addition of biotinylated Compound No. 71 (0.5 nM final) in 1 μl of assay buffer. Binding was allowed to equilibrate for 30 minutes followed by addition of europium crypated labeled Streptavidin (2.5 pM final) and APC-labeled anti-His (20 nM final) in 5 μl of HTRF buffer. The reaction was allowed to equilibrate for 30 m and signal (665 nm/620 nm ratio) was obtained using an EnVision fluorometer.
Recombinant Proteins. Carboxyl-truncated human PD-1 (amino acids 25-167) with a C-terminal human Ig epitope tag [hPD-1 (25-167)-35-IG] and human PD-L1 (amino acids 18-239) with a C-terminal His epitope tag [hPD-L1(19-239)-tobacco vein mottling virus protease cleavage site (TVMV)-His] were expressed in HEK293T cells and purified sequentially by recombinant Protein A affinity chromatography and size exclusion chromatography. Human PD-L2-His (Sino Biologicals), CD80-His (Sino Biologicals), CTLA4-Ig (RnD Systems) were all obtained through commercial sources.

Sequence of PD-1-Ig binding to PD-L1-TVMV-His (PD-L1-His) (Q9NZQ7 other isoform, or with tags, fused parts or gaps): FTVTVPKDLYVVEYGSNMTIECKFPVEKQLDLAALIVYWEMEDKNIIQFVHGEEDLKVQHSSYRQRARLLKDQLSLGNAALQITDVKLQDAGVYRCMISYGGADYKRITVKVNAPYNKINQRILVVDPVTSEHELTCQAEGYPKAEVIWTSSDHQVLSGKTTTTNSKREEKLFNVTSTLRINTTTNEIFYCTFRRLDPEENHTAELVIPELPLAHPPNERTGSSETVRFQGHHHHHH

Row | IC50 (value given as range class) [µM] | IC50 (numeric value) [µM] | SMILES
1 | 0.01 to 0.099 |  | CC(C)C[C@@H]1NC(=O)[C@H](Cc2cnc[nH]2)NC(=O)[C@@H]2CCCN2C(=O)[C@H](CC(N)=O)NC(=O)[C@H](C)N(C)C(=O)[C@H](Cc2ccccc2)NC(=O)CSC[C@@H](C(=O)NCC(N)=O)NC(=O)[C@H](CCCNC(=N)N)NC(=O)[C@@H]2CCCC/C=C/CCCC[C@@H](C(=O)N2C)N(C)C(=O)[C@H](Cc2c[nH]c3ccccc23)NC(=O)[C@H](CO)NC(=O)[C@H](Cc2c[nH]c3ccccc23)NC(=O)CN(C)C1=O [Example 1001]
2 | 0.01 to 0.099 |  | CC(C)C[C@@H]1NC(=O)[C@H](Cc2cnc[nH]2)NC(=O)[C@@H]2CCCN2C(=O)[C@H](CC(N)=O)NC(=O)[C@H](C)N(C)C(=O)[C@H](Cc2ccccc2)NC(=O)CSC[C@@H](C(=O)NCC(N)=O)NC(=O)[C@H](CCCNC(=N)N)NC(=O)[C@@H]2CCCCC/C=C/CCCCC[C@@H](C(=O)N2C)N(C)C(=O)[C@H](Cc2c[nH]c3ccccc23)NC(=O)[C@H](CO)NC(=O)[C@H](Cc2c[nH]c3ccccc23)NC(=O)CN(C)C1=O [Example 1002]
3 | 0.01 to 0.099 |  | CC(C)C[C@@H]1NC(=O)[C@H](Cc2cnc[nH]2)NC(=O)[C@@H]2CCCN2C(=O)[C@H](CC(N)=O)NC(=O)[C@H](C)N(C)C(=O)[C@H](Cc2ccccc2)NC(=O)CSC[C@@H](C(=O)NCC(N)=O)NC(=O)[C@H](CCCNC(=N)N)NC(=O)[C@@H]2CCCC/C=C\CCCC[C@@H](C(=O)N2C)N(C)C(=O)[C@H](Cc2c[nH]c3ccccc23)NC(=O)[C@H](CO)NC(=O)[C@H](Cc2c[nH]c3ccccc23)NC(=O)CN(C)C1=O [Example 1100]
4 | 0.1 to 2 |  | CC(C)C[C@@H]1NC(=O)[C@H](Cc2cnc[nH]2)NC(=O)[C@@H]2CCCN2C(=O)[C@H](CC(N)=O)NC(=O)[C@H](C)N(C)C(=O)[C@H](Cc2ccc(O)cc2)NC(=O)CSC[C@@H](C(=O)NCC(N)=O)NC(=O)[C@H](CCCNC(=N)N)NC(=O)[C@@H]2CCC/C=C\CCC[C@@H](C(=O)N2C)N(C)C(=O)[C@H](Cc2c[nH]c3ccccc23)NC(=O)[C@H](CO)NC(=O)[C@H](Cc2c[nH]c3ccccc23)NC(=O)[C@@H]2C[C@@H](O)CN2C1=O [Example 1101]
5 | 0.1 to 2 |  | CC(C)C[C@@H]1NC(=O)[C@H](Cc2cnc[nH]2)NC(=O)[C@@H]2CCCN2C(=O)[C@H](CC(N)=O)NC(=O)[C@H](C)N(C)C(=O)[C@H](Cc2ccc(O)cc2)NC(=O)CSC[C@@H](C(=O)NCC(N)=O)NC(=O)[C@H](CCCNC(=N)N)NC(=O)[C@@H]2CC/C=C\CC[C@@H](C(=O)N2C)N(C)C(=O)[C@H](Cc2c[nH]c3ccccc23)NC(=O)[C@H](CO)NC(=O)[C@H](Cc2c[nH]c3ccccc23)NC(=O)[C@@H]2C[C@@H](O)CN2C1=O [Example 1102]
6 |  | 1.5 | CC(C)C[C@@H]1NC(=O)[C@H](CN)NC(=O)[C@@H]2CCCN2C(=O)[C@H](CC(N)=O)NC(=O)[C@H](C)N(C)C(=O)[C@H](Cc2ccc(O)cc2)NC(=O)CSC[C@H](C(=O)NCC(N)=O)NC(=O)[C@@H](C)NC(=O)[C@H]2CC/C=C\CC[C@@H](C(=O)N2C)N(C)C(=O)[C@H](Cc2c[nH]c3ccccc23)NC(=O)[C@H](CO)NC(=O)[C@@H](Cc2c[nH]c3ccccc23)NC(=O)[C@@H]2C[C@@H](O)CN2C1=O [Example 1103]
7 | 0.01 to 0.099 |  | CC(C)C[C@@H]1NC(=O)[C@H](CN)NC(=O)[C@@H]2CCCN2C(=O)[C@H](CC(N)=O)NC(=O)[C@H](C)N(C)C(=O)[C@H](Cc2ccc(O)cc2)NC(=O)CSC[C@H](C(=O)NCC(N)=O)NC(=O)[C@@H](CCCN)NC(=O)[C@H]2CCC/C=C\CCC[C@@H](C(=O)N2C)N(C)C(=O)[C@H](Cc2c[nH]c3ccccc23)NC(=O)[C@H](CO)NC(=O)[C@@H](Cc2c[nH]c3ccccc23)NC(=O)[C@@H]2C[C@@H](O)CN2C1=O [Example 1104]
8 | 0.1 to 2 |  | CC(C)C[C@@H]1NC(=O)[C@H](Cc2cnc[nH]2)NC(=O)[C@@H]2CCCN2C(=O)[C@H](CC(N)=O)NC(=O)[C@@H]2COCCN2C(=O)[C@H](Cc2ccc(O)cc2)NC(=O)CSC[C@H](C(=O)NCC(N)=O)NC(=O)[C@@H](C)NC(=O)C2CCC/C=C\CCC[C@@H](C(=O)N2C)N(C)C(=O)[C@H](Cc2c[nH]c3ccccc23)NC(=O)[C@H](CO)NC(=O)[C@@H](Cc2c[nH]c3ccccc23)NC(=O)[C@@H]2C[C@@H](O)CN2C1=O [Example 1105]
9 | 0.1 to 2 |  | CC(C)C[C@@H]1NC(=O)[C@H](CN)NC(=O)[C@@H]2CCCN2C(=O)[C@H](CC(N)=O)NC(=O)[C@H](C)N(C)C(=O)[C@H](Cc2ccc(O)cc2)NC(=O)CSC[C@H](C(=O)NCC(N)=O)NC(=O)[C@@H](C)NC(=O)[C@H]2CCC/C=C\CCC[C@@H](C(=O)N2C)N(C)C(=O)[C@H](Cc2c[nH]c3ccccc23)NC(=O)[C@H](CO)NC(=O)[C@@H](Cc2c[nH]c3ccccc23)NC(=O)[C@@H]2C[C@@H](O)CN2C1=O [Example 1106]
10 | 0.01 to 0.099 |  | CC(C)C[C@@H]1NC(=O)[C@H](CN)NC(=O)[C@@H]2CCCN2C(=O)[C@H](CC(N)=O)NC(=O)[C@H](C)N(C)C(=O)[C@H](Cc2ccc(O)cc2)NC(=O)CSC[C@@H](C(N)=O)NC(=O)[C@H](CCCNC(=N)N)NC(=O)[C@@H]2CCCC/C=C\CCCC[C@@H](C(=O)N2C)N(C)C(=O)[C@H](Cc2c[nH]c3ccccc23)NC(=O)[C@H](CO)NC(=O)[C@H](Cc2c[nH]c3ccccc23)NC(=O)[C@@H]2C[C@@H](O)CN2C1=O [Example 1107]
11 | 0.002 to 0.0099 |  | C[C@H]1C(=O)N[C@@H](CC(=O)O)C(=O)N2CCC[C@H]2C(=O)N[C@@H](CN)C(=O)N[C@@H](CCC(=O)O)C(=O)N2C[C@H](O)C[C@H]2C(=O)N[C@@H](Cc2c[nH]c3ccccc23)C(=O)N[C@@H](CO)C(=O)N[C@@H](Cc2c[nH]c3ccccc23)C(=O)N(C)[C@H]2CCCC/C=C\CCCC[C@@H](C(=O)N[C@@H](CCC(=O)O)C(=O)N[C@H](C(N)=O)CSCC(=O)N[C@@H](Cc3ccc(O)cc3)C(=O)N1C)N(C)C2=O [Example 1108]
12 | 0.002 to 0.0099 |  | CC(C)C[C@@H]1NC(=O)[C@H](CN)NC(=O)[C@@H]2CCCN2C(=O)[C@H](CC(N)=O)NC(=O)[C@H](C)N(C)C(=O)[C@H](Cc2ccc(O)cc2)NC(=O)CSC[C@H](C(=O)NCC(N)=O)NC(=O)[C@@H](CCCNC(=N)N)NC(=O)[C@@H]2CCCC/C=C\CCCC[C@@H](C(=O)N2C)N(C)C(=O)[C@H](Cc2c[nH]c3ccccc23)NC(=O)[C@H](CO)NC(=O)[C@@H](Cc2c[nH]c3ccccc23)NC(=O)[C@@H]2C[C@@H](O)CN2C1=O [Example 1109]
13 | 0.01 to 0.099 |  | CC(C)C[C@@H]1NC(=O)[C@H](Cc2c[nH]cn2)NC(=O)[C@@H]2CCCN2C(=O)[C@H](CC(N)=O)NC(=O)[C@@H]2COCCN2C(=O)[C@H](Cc2ccc(O)cc2)NC(=O)CSC[C@H](C(=O)NCC(N)=O)NC(=O)[C@@H](C)NC(=O)[C@@H]2CCC/C=C\CCC[C@@H](C(=O)N2C)N(C)C(=O)[C@H](Cc2c[nH]c3ccccc23)NC(=O)[C@H](CO)NC(=O)[C@@H](Cc2c[nH]c3ccccc23)NC(=O)[C@@H]2C[C@@H](O)CN2C1=O [Example 1110]
14 | 0.002 to 0.0099 |  | C[C@H]1C(=O)N[C@@H](CC(=O)O)C(=O)N2CCC[C@H]2C(=O)N[C@@H](CN)C(=O)N[C@@H](CCC(=O)O)C(=O)N2C[C@H](O)C[C@H]2C(=O)N[C@@H](Cc2c[nH]c3ccccc23)C(=O)N[C@@H](CO)C(=O)N[C@@H](Cc2c[nH]c3ccccc23)C(=O)N(C)[C@H]2CCCC/C=C\CCCC[C@@H](C(=O)N[C@@H](CCC(=O)O)C(=O)N[C@H](C(=O)NCC(N)=O)CSCC(=O)N[C@@H](Cc3ccc(O)cc3)C(=O)N1C)N(C)C2=O [Example 1111]
15 | 0.002 to 0.0099 |  | C[C@@H]1NC(=O)[C@@H]2CCCC/C=C\CCCC[C@@H](C(=O)N2C)N(C)C(=O)[C@H](Cc2c[nH]c3ccccc23)NC(=O)[C@H](CO)NC(=O)[C@H](Cc2c[nH]c3ccccc23)NC(=O)[C@@H]2C[C@@H](O)CN2C(=O)[C@H](CCC(N)=O)NC(=O)[C@H](CN)NC(=O)[C@@H]2CCCN2C(=O)[C@H](CC(=O)O)NC(=O)[C@H](C)N(C)C(=O)[C@H](Cc2ccc(O)cc2)NC(=O)CSC[C@@H](C(=O)NCC(N)=O)NC1=O [Example 1112]
